Experimental findings from the NIST ThermoML archive (doi:10.1021/je500682v) are described below.

SMILES strings stand for the structures. Numbers after ± are expanded uncertainties.

The conditions of series [1]: Crystal; DTA.
Series [2] can be described thus: Molar enthalpy of transition or fusion. The note with it: Crystal; DSC.

For the molecule `O=C(O)CCCC(=O)O` [1,5-pentanedioic acid], in series [1], the Normal melting temperature was 99.10 ± 0.99 °C. Also, the “Molar enthalpy of transition or fusion” value in series [2] amounted to 5.07 ± 0.287 kcal/mol.

In the case of `O=C(O)CCCCC(=O)O` [1,6-hexanedioic acid], the Normal melting temperature in series [1] amounted to 152.00 ± 0.99 °C. Moreover, the “Molar enthalpy of transition or fusion” value in series [2] came out at 8.4 ± 0.454 kcal/mol.

In the case of `O=C(O)CCC(=O)O` [butanedioic acid], in series [1], the Normal melting temperature came out at 185.50 ± 0.99 °C. For the same molecule, the “Molar enthalpy of transition or fusion” value in series [2] was 7.82 ± 0.43 kcal/mol.
